Data from patent publication US20090181963A1, “3H-[1,2,3]TRIAZOLO[4,5-D]PYRIMIDINE COMPOUNDS, THEIR USE AS mTOR KINASE AND PI3 KINASE INHIBITORS, AND THEIR [sequence]” (Wyeth, priority 2008, published 2009).

Experiments:
PI3 Kinase α = PI3 Kinase α (Homo sapiens, UniProt P42336); assay: Fluorescence polarization assay for PI3K (PI3 Kinase α); assay type: biochemical; conditions: diC8-PI(4,5)P2 substrate, 25 μM ATP, one hour at 25° C.
PI3 Kinase γ = PI3 Kinase γ (Homo sapiens, UniProt P48736); assay: Fluorescence polarization assay for PI3K (PI3 Kinase γ); assay type: biochemical; conditions: diC8-PI(4,5)P2 substrate, 25 μM ATP, one hour at 25° C.
Sequence of PI3 Kinase γ (P48736 whole entry): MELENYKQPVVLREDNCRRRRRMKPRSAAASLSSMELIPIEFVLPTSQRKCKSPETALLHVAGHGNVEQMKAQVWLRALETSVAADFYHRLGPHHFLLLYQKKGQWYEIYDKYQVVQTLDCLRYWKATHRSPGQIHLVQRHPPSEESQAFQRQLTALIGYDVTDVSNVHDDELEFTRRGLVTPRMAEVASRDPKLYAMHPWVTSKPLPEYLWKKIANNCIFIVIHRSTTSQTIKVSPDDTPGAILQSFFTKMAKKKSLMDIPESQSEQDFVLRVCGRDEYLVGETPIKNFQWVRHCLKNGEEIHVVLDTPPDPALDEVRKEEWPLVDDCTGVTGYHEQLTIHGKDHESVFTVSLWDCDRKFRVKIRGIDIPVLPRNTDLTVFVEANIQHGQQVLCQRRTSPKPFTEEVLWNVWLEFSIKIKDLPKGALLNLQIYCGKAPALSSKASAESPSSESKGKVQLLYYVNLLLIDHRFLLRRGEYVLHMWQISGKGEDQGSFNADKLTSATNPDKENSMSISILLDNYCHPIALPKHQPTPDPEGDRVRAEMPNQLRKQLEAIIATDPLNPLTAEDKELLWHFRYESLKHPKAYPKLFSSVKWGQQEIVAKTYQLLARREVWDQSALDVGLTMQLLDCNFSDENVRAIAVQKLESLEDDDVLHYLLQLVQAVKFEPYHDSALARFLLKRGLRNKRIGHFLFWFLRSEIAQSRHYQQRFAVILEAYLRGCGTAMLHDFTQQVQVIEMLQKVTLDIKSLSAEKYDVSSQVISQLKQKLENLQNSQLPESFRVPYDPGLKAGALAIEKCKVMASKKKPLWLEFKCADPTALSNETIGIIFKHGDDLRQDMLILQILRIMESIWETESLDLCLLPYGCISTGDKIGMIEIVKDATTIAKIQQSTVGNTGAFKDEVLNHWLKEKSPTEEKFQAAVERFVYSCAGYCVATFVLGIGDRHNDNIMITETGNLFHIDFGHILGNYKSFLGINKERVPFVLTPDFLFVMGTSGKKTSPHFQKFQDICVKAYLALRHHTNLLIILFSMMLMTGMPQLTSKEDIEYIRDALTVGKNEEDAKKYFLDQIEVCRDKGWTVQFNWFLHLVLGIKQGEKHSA

Sequence of PI3 Kinase α (P42336 whole entry): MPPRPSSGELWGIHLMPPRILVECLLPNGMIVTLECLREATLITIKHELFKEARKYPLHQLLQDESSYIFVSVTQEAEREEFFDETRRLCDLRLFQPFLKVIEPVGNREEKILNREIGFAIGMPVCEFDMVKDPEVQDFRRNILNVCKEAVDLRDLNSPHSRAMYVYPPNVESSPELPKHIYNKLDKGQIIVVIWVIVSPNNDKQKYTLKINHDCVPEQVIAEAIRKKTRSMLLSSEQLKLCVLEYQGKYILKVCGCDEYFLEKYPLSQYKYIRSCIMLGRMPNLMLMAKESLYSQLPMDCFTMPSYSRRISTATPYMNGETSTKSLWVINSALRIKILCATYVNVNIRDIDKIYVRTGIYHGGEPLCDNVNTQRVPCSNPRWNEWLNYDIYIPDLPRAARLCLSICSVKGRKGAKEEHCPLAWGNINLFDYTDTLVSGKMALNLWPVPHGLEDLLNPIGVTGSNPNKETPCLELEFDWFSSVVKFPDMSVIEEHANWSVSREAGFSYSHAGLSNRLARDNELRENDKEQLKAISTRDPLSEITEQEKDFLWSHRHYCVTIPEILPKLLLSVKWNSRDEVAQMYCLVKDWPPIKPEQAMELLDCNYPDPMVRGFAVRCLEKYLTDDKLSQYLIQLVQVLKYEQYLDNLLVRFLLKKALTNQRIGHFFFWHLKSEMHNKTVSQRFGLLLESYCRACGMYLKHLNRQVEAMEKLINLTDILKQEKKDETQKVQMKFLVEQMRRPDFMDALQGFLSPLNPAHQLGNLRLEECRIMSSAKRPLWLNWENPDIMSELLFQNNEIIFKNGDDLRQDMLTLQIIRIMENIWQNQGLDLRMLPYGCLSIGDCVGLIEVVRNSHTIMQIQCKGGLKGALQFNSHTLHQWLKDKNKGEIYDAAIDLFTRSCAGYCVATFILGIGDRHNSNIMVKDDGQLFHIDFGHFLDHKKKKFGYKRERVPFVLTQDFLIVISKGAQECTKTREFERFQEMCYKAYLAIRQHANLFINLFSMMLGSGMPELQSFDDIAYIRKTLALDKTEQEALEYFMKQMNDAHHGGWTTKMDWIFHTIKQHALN
Sequence of PI3 Kinase α (P27986 whole entry partner): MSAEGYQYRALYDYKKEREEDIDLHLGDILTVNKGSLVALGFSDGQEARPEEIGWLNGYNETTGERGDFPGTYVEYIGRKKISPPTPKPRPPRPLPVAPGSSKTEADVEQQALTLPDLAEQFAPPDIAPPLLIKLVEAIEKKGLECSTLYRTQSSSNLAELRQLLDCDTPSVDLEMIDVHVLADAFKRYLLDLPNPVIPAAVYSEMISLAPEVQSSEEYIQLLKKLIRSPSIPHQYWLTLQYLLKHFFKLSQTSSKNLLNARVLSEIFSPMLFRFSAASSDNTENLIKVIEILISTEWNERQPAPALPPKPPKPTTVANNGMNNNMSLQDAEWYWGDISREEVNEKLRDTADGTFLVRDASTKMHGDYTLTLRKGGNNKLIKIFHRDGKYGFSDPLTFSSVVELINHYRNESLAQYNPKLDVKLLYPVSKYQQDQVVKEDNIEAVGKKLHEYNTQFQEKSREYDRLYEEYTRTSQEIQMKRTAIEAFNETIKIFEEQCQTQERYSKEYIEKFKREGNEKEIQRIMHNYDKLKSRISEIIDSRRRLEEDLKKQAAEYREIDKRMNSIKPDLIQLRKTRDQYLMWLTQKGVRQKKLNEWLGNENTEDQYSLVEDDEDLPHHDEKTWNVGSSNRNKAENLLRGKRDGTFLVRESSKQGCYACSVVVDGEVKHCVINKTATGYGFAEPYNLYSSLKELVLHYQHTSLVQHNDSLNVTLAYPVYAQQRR

SMILES: O=C(Cc1ccccc1)N1CCN(CCn2nnc3c(N4CCOCC4)nc(-c4cccc(O)c4)nc32)CC1 [Example 104, 3-(7-morpholin-4-yl-3-{2-[4-(phenylacetyl)piperazin-1-yl]ethyl}-3H-[1,2,3]triazolo[4,5-d]pyrimidin-5-yl)phenol]
- IC50 (PI3 Kinase α): 1170 nM
- IC50 (PI3 Kinase γ): 3030 nM

SMILES: CC(=O)N1CCN(CCn2nnc3c(N4CCOCC4)nc(-c4cccc(O)c4)nc32)CC1 [Example 105, 3-{3-[2-(4-acetylpiperazin-1-yl)ethyl]-7-morpholin-4-yl-3H-[1,2,3]triazolo[4,5-d]pyrimidin-5-yl}phenol]
- IC50 (PI3 Kinase α): 1380 nM
- IC50 (PI3 Kinase γ): 2960 nM

SMILES: Oc1cccc(-c2nc(N3CCOCC3)c3nnn(CCN4CCN(C5CCCCC5)CC4)c3n2)c1 [Example 106, 3-{3-[2-(4-cyclohexylpiperazin-1-yl)ethyl]-7-morpholin-4-yl-3H-[1,2,3]triazolo[4,5-d]pyrimidin-5-yl}phenol]
- IC50 (PI3 Kinase α): 556 nM
- IC50 (PI3 Kinase γ): 2140 nM

SMILES: CCCCN1CCN(CCn2nnc3c(N4CCOCC4)nc(-c4cccc(O)c4)nc32)CC1 [Example 107, 3-{3-[2-(4-butylpiperazin-1-yl)ethyl]-7-morpholin-4-yl-3H-[1,2,3]triazolo[4,5-d]pyrimidin-5-yl}phenol]
- IC50 (PI3 Kinase α): 1040 nM
- IC50 (PI3 Kinase γ): 2490 nM

SMILES: CC(C)CN1CCN(CCn2nnc3c(N4CCOCC4)nc(-c4cccc(O)c4)nc32)CC1 [Example 108, 3-{3-[2-(4-isobutylpiperazin-1-yl)ethyl]-7-morpholin-4-yl-3H-[1,2,3]triazolo[4,5-d]pyrimidin-5-yl}phenol]
- IC50 (PI3 Kinase α): 941 nM
- IC50 (PI3 Kinase γ): 2770 nM

SMILES: Oc1cccc(-c2nc(N3CCOCC3)c3nnn(CCN4CCN(Cc5cccc(F)c5)CC4)c3n2)c1 [Example 109, 3-(3-{2-[4-(3-fluorobenzyl)piperazin-1-yl]ethyl}-7-morpholin-4-yl-3H-[1,2,3]triazolo[4,5-d]pyrimidin-5-yl)phenol]
- IC50 (PI3 Kinase α): 242 nM
- IC50 (PI3 Kinase γ): 900 nM

SMILES: CN(C)CCCOc1ccc(CN2CCN(CCn3nnc4c(N5CCOCC5)nc(-c5cccc(O)c5)nc43)CC2)cc1 [Example 110, 3-{3-[2-(4-{4-[3-(dimethylamino)propoxy]benzyl}piperazin-1-yl)ethyl]-7-morpholin-4-yl-3H-[1,2,3]triazolo[4,5-d]pyrimidin-5-yl}phenol]
- IC50 (PI3 Kinase α): 200 nM
- IC50 (PI3 Kinase γ): 402 nM

SMILES: Oc1cccc(-c2nc(N3CCOCC3)c3nnn(CCN4CCN(Cc5cccnc5)CC4)c3n2)c1 [Example 111, 3-(7-morpholin-4-yl-3-{2-[4-(pyridin-3-ylmethyl)piperazin-1-yl]ethyl}-3H-[1,2,3]triazolo[4,5-d]pyrimidin-5-yl)phenol]
- IC50 (PI3 Kinase α): 439 nM
- IC50 (PI3 Kinase γ): 2290 nM

SMILES: Oc1cccc(-c2nc(N3CCOCC3)c3nnn(CCN4CCN(Cc5ccc[nH]5)CC4)c3n2)c1 [Example 112, 3-(7-morpholin-4-yl-3-{2-[4-(1H-pyrrol-2-ylmethyl)piperazin-1-yl]ethyl}-3H-[1,2,3]triazolo[4,5-d]pyrimidin-5-yl)phenol]
- IC50 (PI3 Kinase α): 154 nM
- IC50 (PI3 Kinase γ): 1020 nM

SMILES: Oc1cccc(-c2nc(N3CCOCC3)c3nnn(CCN4CCN(Cc5ccco5)CC4)c3n2)c1 [Example 113, 3-(3-{2-[4-(2-furylmethyl)piperazin-1-yl]ethyl}-7-morpholin-4-yl-3H-[1,2,3]triazolo[4,5-d]pyrimidin-5-yl)phenol]
- IC50 (PI3 Kinase α): 726 nM
- IC50 (PI3 Kinase γ): 3350 nM

SMILES: Oc1cccc(-c2nc(N3CCOCC3)c3nnn(CCN4CCN(Cc5ccccc5)CC4)c3n2)c1 [Example 114, 3-{3-[2-(4-benzylpiperazin-1-yl)ethyl]-7-morpholin-4-yl-3H-[1,2,3]triazolo[4,5-d]pyrimidin-5-yl}phenol]
- IC50 (PI3 Kinase α): 255 nM
- IC50 (PI3 Kinase γ): 982 nM

SMILES: COC(=O)c1cccc(-n2nnc3c(N4CCOCC4)nc(-c4cccc(O)c4)nc32)c1 [Example 115, methyl 3-[5-(3-hydroxyphenyl)-7-morpholin-4-yl-3H-[1,2,3]triazolo[4,5-d]pyrimidin-3-yl]benzoate]
- IC50 (PI3 Kinase α): 240 nM
- IC50 (PI3 Kinase γ): 3630 nM

SMILES: COC(=O)c1cccc(-n2nnc3c(N4CCOCC4)nc(-c4cccc(C=O)c4)nc32)c1 [Example 116, methyl 3-[5-(3-formylphenyl)-7-morpholin-4-yl-3H-[1,2,3]triazolo[4,5-d]pyrimidin-3-yl]benzoate]
- IC50 (PI3 Kinase α): > 10000 nM
- IC50 (PI3 Kinase γ): > 10000 nM

SMILES: OCc1cccc(-c2nc(N3CCOCC3)c3nnn(-c4cccc(CO)c4)c3n2)c1 [Example 117, [(7-morpholin-4-yl-3H-[1,2,3]triazolo[4,5-d]pyrimidine-3,5-diyl)di-3,1-phenylene]dimethanol]
- IC50 (PI3 Kinase α): 38.3 nM
- IC50 (PI3 Kinase γ): 144 nM

SMILES: O=C(O)c1cccc(-n2nnc3c(N4CCOCC4)nc(-c4cccc(O)c4)nc32)c1 [Example 118, 3-[5-(3-hydroxyphenyl)-7-morpholin-4-yl-3H-[1,2,3]triazolo[4,5-d]pyrimidin-3-yl]benzoic acid]
- IC50 (PI3 Kinase α): 27.5 nM
- IC50 (PI3 Kinase γ): 102 nM

SMILES: NC(=O)c1cccc(-n2nnc3c(N4CCOCC4)nc(-c4cccc(O)c4)nc32)c1 [Example 119, 3-[5-(3-hydroxyphenyl)-7-morpholin-4-yl-3H-[1,2,3]triazolo[4,5-d]pyrimidin-3-yl]benzamide]
- IC50 (PI3 Kinase α): 22.5 nM
- IC50 (PI3 Kinase γ): 314 nM

SMILES: O=C(c1cccc(-n2nnc3c(N4CCOCC4)nc(-c4cccc(O)c4)nc32)c1)N1CCC(N2CCCC2)CC1 [Example 120, 3-(7-morpholin-4-yl-3-{3-[(4-pyrrolidin-1-ylpiperidin-1-yl)carbonyl]phenyl}-3H-[1,2,3]triazolo[4,5-d]pyrimidin-5-yl)phenol]
- IC50 (PI3 Kinase α): 15.5 nM
- IC50 (PI3 Kinase γ): 290 nM

SMILES: CNC(=O)c1cccc(-n2nnc3c(N4CCOCC4)nc(-c4cccc(O)c4)nc32)c1 [Example 121, 3-[5-(3-hydroxyphenyl)-7-morpholin-4-yl-3H-[1,2,3]triazolo[4,5-d]pyrimidin-3-yl]-N-methylbenzamide]
- IC50 (PI3 Kinase α): 36 nM
- IC50 (PI3 Kinase γ): 551 nM

SMILES: CN(C)CCNC(=O)c1cccc(-n2nnc3c(N4CCOCC4)nc(-c4cccc(O)c4)nc32)c1 [Example 122, N-[2-(dimethylamino)ethyl]-3-[5-(3-hydroxyphenyl)-7-morpholin-4-yl-3H-[1,2,3]triazolo[4,5-d]pyrimidin-3-yl]benzamide]
- IC50 (PI3 Kinase α): 56.5 nM
- IC50 (PI3 Kinase γ): 260 nM

SMILES: O=C(Nc1ccccc1)Nc1ccc(-c2nc(N3CCOCC3)c3nnn(-c4cccc(C(=O)O)c4)c3n2)cc1 [Example 123, 3-(7-morpholin-4-yl-5-{4-[(phenylcarbamoyl)amino]phenyl}-3H-[1,2,3]triazolo[4,5-d]pyrimidin-3-yl)benzoic acid]
- IC50 (PI3 Kinase α): 4 nM
- IC50 (PI3 Kinase γ): 8.5 nM

SMILES: CC(C)(C)OC(=O)N1CC(n2nnc3c(N4CCOCC4)nc(-c4cccc(O)c4)nc32)C1 [Example 124, tert-butyl 3-[5-(3-hydroxyphenyl)-7-morpholin-4-yl-3H-[1,2,3]triazolo[4,5-d]pyrimidin-3-yl]azetidine-1-carboxylate]
- IC50 (PI3 Kinase α): 108 nM
- IC50 (PI3 Kinase γ): 890 nM

SMILES: Oc1cccc(-c2nc(N3CCOCC3)c3nnn(C4CNC4)c3n2)c1 [Example 125, 3-(3-azetidin-3-yl-7-morpholin-4-yl-3H-[1,2,3]triazolo[4,5-d]pyrimidin-5-yl)phenol]
- IC50 (PI3 Kinase α): 130 nM
- IC50 (PI3 Kinase γ): 1960 nM

SMILES: Nc1ccccc1C(=O)N1CC(n2nnc3c(N4CCOCC4)nc(-c4cccc(O)c4)nc32)C1 [Example 126, (2-amino-phenyl)-{3-[5-(3-hydroxy-phenyl)-7-morpholin-4-yl-[1,2,3]triazolo[4,5-d]pyrimidin-3-yl]-azetidin-1-yl}-methanone]
- IC50 (PI3 Kinase α): 60.5 nM
- IC50 (PI3 Kinase γ): 873 nM
